Source: US9353088B2, “Crystalline pharmaceutical and methods of preparation and use thereof” (SARcode Bioscience Inc., priority 2009, dated 2016)

Test system: tester strains
Test: In vitro Ames bacterial reverse mutation assay
Format: cell-based
Conditions: presence or absence of microsomal (S9) enzymes
From the text: Therefore, the compound of Formula I was judged to be not mutagenic.

`CS(=O)(=O)c1cccc(C[C@H](NC(=O)c2c(Cl)cc3c(c2Cl)CCN(C(=O)c2ccc4ccoc4c2)C3)C(=O)O)c1` [Compound of Formula I] was tested, and the mutagenicity was “not mutagenic”.
